Test results taken from patent US7163940B2, “Pyrazolopyridinyl pyrimidine therapeutic compounds” (SmithKline Beecham Corporation, priority 2000, dated 2007).
Structures can show the parent of a compound that is named as a salt.

tested on: HSV-1; experiment: HSV-1 replication in infected Vero 76 cells, viral DNA hybridization capture assay; assay type: cell-based; conditions: HSV-1, Vero 76 cells, MOI=0.001, 40–48 hours incubation
Protocol: Vero 76 cells were maintained in MEM with Earle's salts, L-glutamine, 8% FBS (Hyclone, A-1111-L) and 100 units/mL Penicillin-100 μg/mL Streptomycin. For assay conditions, FBS was reduced to 2%. Cells are seeded into 96-well tissue culture plates at a density of 5×10^4 cells/well after being incubated for 45 min at 37° C. in the presence of HSV-1 or HSV-2 (MOI=0.001). Test compounds are added to the wells and the plates are incubated at 37° C. for 40–48 hours. Cell lysates are prepared as follows: media was removed and replaced with 150 μL/well 0.2 N NaOH with 1% Igepal CA 630 or NP-40. Plates were incubated up to 14 days at room temperature in a humidified chamber to prevent evaporation. • (b) Preparation of Detection DNA.
For the detection probe, a gel-purified, digoxigenin-labeled, […] PCR fragment of the HSV UL-15 sequence was utilized. PCR conditions included 0.5 μM primers, 180 μM dTP, 20 μM dUTP-digoxigenin (Boehringer Mannheim 1558706), 200 μM each of dATP, dCTP, and dGTP, 1×PCR Buffer II (Perkin Elmer), 2.5 mM MgCl2, 0.025 units/μL of AmpliTaq Gold polymerase (Perkin Elmer), and 5 ng of gel-purified HSV DNA per 100 μL. Extension conditions were 10 min at 95° C., followed by 30 cycles of 95° C. for 1 min, 55° C. for 30 sec, and 72° C. for 2 min. The amplification was completed with a 10-min incubation at 72° C. Primers were selected to amplify a 728 bp probe spanning a section of the HSV1 UL15 open reading frame (nucleotides 249–977). Single-stranded transcripts were purified with Promega M13 Wizard kits. The final product was mixed 1:1 with a mixture of 6 M GuSCN, 100 mM EDTA and 200 μg/mL herring sperm DNA and stored at 4° C. • (c) Preparation of Capture Plates.
The capture DNA plasmid (HSV UL13 region in pUC) was linearized by cutting with Xba I, denatured for 15 min at 95° C. and diluted immediately into Reacti-Bind DNA Coating Solution (Pierce, 17250, diluted 1:1 with TE buffer, pH 8) at 1 ng/μL 75 μL/well were added to Corning (#3922 or 9690) white 96-well plates and incubated at room temperature for at least 4 hrs before washing twice with 300 μL/well 0.2×SSC/0.05% Tween-20 (SSC/T buffer). The plates were then incubated overnight at room temperature with 150 μL/well 0.2 N NaOH, 1% IGEPAL and 10 μg/mL herring sperm DNA. • (d) Hybridization.
Twenty-seven (27) μL of cell lysate was combined with 45 μL of hybridization solution (final concentration: 3M GuSCN, 50 mM EDTA, 100 μg/ml salmon sperm DNA, 5× Denhardt's solution, 0.25×APE, and 5 ng of the digoxigenin-labeled detection probe). APE is 1.5 M NH4-acetate, 0.15 M ammonium phosphate, and 5 mM EDTA adjusted to pH 6.0. Mineral oil (50 μL) was added to prevent evaporation. The hybridization plates were incubated at 95° C. for 10 minutes to denature the DNA, then incubated at 42° C. overnight. The wells were washed 6× with 300 μL/well SSC/T buffer then incubated with 75 μL/well anti-digoxigenin-HRP-conjugated antibody (Boehringer Mannheim 1207733, 1:5000 in TE) for 30 min at room temperature. The wells were washed 6× with 300 μL/well with PBS/0.05% Tween-20 before 75 μL/well SuperSignal LBA substrate (Pierce) was added. The plates were incubated at room temperature for 30 minutes and chemiluminescence was measured in a Wallac Victor reader. • e) Results.
The following results were obtained for HSV-1.

IC50 [nM]	SMILES
800	Cc1cc(-c2c(-c3ccc(F)cc3)nn3c(NC4CCCC4)cccc23)nc(NC2CCCC2)n1 [Example 8, N-Cyclopentyl-3-[2-(cyclopentylamino)-6-methyl-4-pyrimidinyl]-2-(4-fluorophenyl)pyrazolo[1,5-α]pyridin-7-amine]

same assay, conditions: Human alphaherpesvirus 1, Vero 76, HSV-1, Vero 76 cells, MOI=0.001, 40–48 hours incubation

IC50 [nM]	SMILES
300	Fc1ccc(-c2nn3c(NC4CCCC4)cccc3c2-c2ccnc(NC3CCCC3)n2)cc1 [Example 1, N-cyclopentyl-3-[2-(cyclopentylamino)-4-pyrimidinyl]-2-(4-fluorophenyl)pyrazolo[1,5-α]pyridin-7-amine]
700	CCCCNc1nccc(-c2c(-c3ccc(Br)cc3)nn3c(NCCCC)cccc23)n1 [Example 2, 2-(4-Bromophenyl)-N-butyl-3-[2-(butylamino)-4-pyrimidinyl]pyrazolo[1,5-α]pyridin-7-amine]
500	CCCCNc1nccc(-c2c(-c3ccc(F)cc3)nn3c(NCCCC)cccc23)n1 [Example 3, N-Butyl-3-[2-(butylamino)-4-pyrimidinyl]-2-(4-fluorophenyl)pyrazolo-[1,5-α]pyridin-7-amine]
600	CCCCNc1cccc2c(-c3ccnc(NC4CC4)n3)c(-c3ccc(F)cc3)nn12 [Example 4, N-Butyl-3-[2-(cyclopropylamino)-4-pyrimidinyl]-2-(4-fluorophenyl)-pyrazolo[1,5-α]pyridin-7-amine]
5000	CCCCNc1cccc2c(-c3ccnc(N4CCCC4)n3)c(-c3ccc(F)cc3)nn12 [Example 5, N-Butyl-2-(4-fluorophenyl)-3-[2-(1-pyrrolidinyl)-4-pyrimidinyl]pyrazolo[1,5-α]pyridin-7-amine]
200	CCCCNc1cccc2c(-c3ccnc(NC4CCCC4)n3)c(-c3ccc(F)cc3)nn12 [Example 6, N-Butyl-3-[2-(cyclopentylamino)-4-pyrimidinyl]-2-(4-fluorophenyl)pyrazolo[1,5-α]pyridin-7-amine]
3900	Cc1cc(-c2c(-c3ccc(F)cc3)nn3c(Cl)cccc23)nc(NC2CCCC2)n1 [Example 7, 4-[7-Chloro-2-(4-fluorophenyl)pyrazolo[1,5-α]pyridin-3-yl]-N-cyclopentyl-6-methyl-2-pyrimidinamine]
8000	CCCCNc1cccc2c(-c3ccnc(N4CCCC4)n3)c(-c3ccc(Br)cc3)nn12 [Example 9, 2-(4-Bromophenyl)-N-butyl-3-[2-(1-pyrrolidinyl)-4-pyrimidinyl]pyrazolo[1,5-α]pyridin-7-amine]
5000	CCCCNc1cccc2c(-c3ccnc(NC4CCCC4)n3)c(-c3ccc(Br)cc3)nn12 [Example 10, 2-(4-Bromophenyl)-N-butyl-3-[2-(cyclopentylamino)-4-pyrimidinyl]pyrazolo[1,5-α]pyridin-7-amine]
1000	CN(C)c1nccc(-c2c(-c3ccc(F)cc3)nn3c(NC4CCCC4)cccc23)n1 [Example 11, N-Cyclopentyl-3-[2-(dimethylamino)-4-pyrimidinyl]-2-(4-fluorophenyl)pyrazolo[1,5-α]pyridin-7-amine]
500	Nc1nccc(-c2c(-c3ccc(F)cc3)nn3c(NC4CCCC4)cccc23)n1 [Example 12, 3-(2-Amino-4-pyrimidinyl)-N-cyclopentyl-2-(4-fluorophenyl)pyrazolo[1,5-α]pyridin-7-amine]
6000	Fc1ccc(-c2nn3c(NC4CCCC4)cccc3c2-c2ccnc(NCCCN3CCOCC3)n2)cc1 [Example 13, N-Cyclopentyl-2-(4-fluorophenyl)-3-(2-{[3-(4-morpholinyl)propyl]-amino}-4-pyrimidinyl)pyrazolo[1,5-α]pyridin-7-amine]
5000	Cc1cc(-c2c(-c3ccc(F)cc3)nn3c(NN)cccc23)nc(NC2CCCC2)n1 [Example 14, N-Cyclopentyl-4-[2-(4-fluorophenyl)-7-hydrazinopyrazolo[1,5-α]pyridin-3-yl]-6-methyl-2-pyrimidinamine]
5000	Cc1cc(-c2c(-c3ccc(F)cc3)nn3c(N4CCN(C)CC4)cccc23)nc(NC2CCCC2)n1 [Example 15, N-Cyclopentyl-4-[2-(4-fluorophenyl)-7-(4-methyl-1-piperazinyl)pyrazolo[1,5-α]pyridin-3-yl]-6-methyl-2-pyrimidinamine]
40000	Fc1ccc(-c2nn3c(NC4CCCC4)cccc3c2-c2cc(COC3CCCCO3)nc(NC3CCCC3)n2)cc1 (stereo not drawn) [Example 16, N-Cyclopentyl-3-{2-(cyclopentylamino)-6-[(tetrahydro-2H-pyran-2-yloxy)methyl]-4-pyrimidinyl}-2-(4-fluorophenyl)pyrazolo[1,5-α]pyridin-7-amine]
3000	OCc1cc(-c2c(-c3ccc(F)cc3)nn3c(Cl)cccc23)nc(NC2CCCC2)n1 [Example 17, [6-[7-Chloro-2-(4-fluorophenyl)pyrazolo[1,5-α]pyridin-3-yl]-2-(cyclopentylamino)-4-pyrimidinyl]methanol]
20000	CN(CC(=O)O)c1nccc(-c2c(-c3ccc(F)cc3)nn3c(NC4CCCC4)cccc23)n1 [Example 18, [{4-[7-(Cyclopentylamino)-2-(4-fluorophenyl)pyrazolo[1,5-α]pyridin-3-yl]-2-pyrimidinyl}(methyl)amino]acetic acid]
2500	CN1CCN(c2cccc3c(-c4cc(-c5ccccc5)nc(NC5CCCC5)n4)c(-c4ccc(F)cc4)nn23)CC1 [Example 19, N-Cyclopentyl-4-[2-(4-fluorophenyl)-7-(4-methyl-1-piperazinyl)pyrazolo[1,5-α]pyridin-3-yl]-6-phenyl-2-pyrimidinamine hydrochloride]
3000	NCCNc1cccc2c(-c3cc(-c4ccccc4)nc(NC4CCCC4)n3)c(-c3ccc(F)cc3)nn12 [Example 20, N′-[3-[2-(Cyclopentylamino)-6-phenyl-4-pyrimidinyl]-2-(4-fluorophenyl)pyrazolo[1,5-α]pyridin-7-yl]-1,2-ethanediamine]
1000	Nc1cccc2c(-c3ccnc(NC4CCCC4)n3)c(-c3ccc(F)cc3)nn12 [Example 21, 3-[2-(Cyclopentylamino)-4-pyrimidinyl]-2-(4-fluorophenyl)pyrazolo[1,5-α]pyridin-7-amine]
5000	OCc1cc(-c2c(-c3ccc(F)cc3)nn3c(NC4CCCC4)cccc23)nc(NC2CCCC2)n1 [Example 22, {2-(Cyclopentylamino)-6-[7-(cyclopentylamino)-2-(4-fluorophenyl)pyrazolo[1,5-α]pyridin-3-yl]-4-pyrimidinyl}methanol]
1000	COc1ccc(Nc2cccc3c(-c4ccnc(NC5CCCC5)n4)c(-c4ccc(F)cc4)nn23)cc1 [Example 23, 3-[2-(Cyclopentylamino)-4-pyrimidinyl]-2-(4-fluorophenyl)-N-(4-methoxyphenyl)pyrazo[1,5-α]pyridin-7-amine]
10000	COC(=O)CNc1cccc2c(-c3cc(C)nc(NC4CCCC4)n3)c(-c3ccc(F)cc3)nn12 [Example 24, Methyl {[3-[2-(cyclopentylamino)-6-methyl-4-pyrimidinyl]-2-(4-fluorophenyl)pyrazolo[1,5-α]pyridin-7-yl]amino}acetate]
15000	Cc1cc(-c2c(-c3ccc(F)cc3)nn3c(NCC(=O)O)cccc23)nc(NC2CCCC2)n1 [Example 25, {[3-[2-(Cyclopentylamino)-6-methyl-4-pyrimidinyl]-2-(4-fluorophenyl)pyrazolo[1,5-α]pyridin-7-yl]amino}acetic acid]
1500	Fc1ccc(-c2nn3c(Cl)cccc3c2-c2ccnc(NC3CCCC3)n2)cc1 [Example 26, 4-[7-Chloro-2-(4-fluorophenyl)pyrazolo[1,5-α]pyridin-3-yl]-N-cyclopentyl-2-pyrimidinamine]
